What follows are molecules tested against ALK2 (Homo sapiens (Human), UniProt Q04771) (assay: ALK2 inhibition, LanthaScreen Eu Kinase Binding Assay (ThermoFisher Scientific / Life Technologies)). Settings: read-out: Measured Ki (IC50) Value for Compounds: IC50.
ALK2, sequence (Q04771 21-509): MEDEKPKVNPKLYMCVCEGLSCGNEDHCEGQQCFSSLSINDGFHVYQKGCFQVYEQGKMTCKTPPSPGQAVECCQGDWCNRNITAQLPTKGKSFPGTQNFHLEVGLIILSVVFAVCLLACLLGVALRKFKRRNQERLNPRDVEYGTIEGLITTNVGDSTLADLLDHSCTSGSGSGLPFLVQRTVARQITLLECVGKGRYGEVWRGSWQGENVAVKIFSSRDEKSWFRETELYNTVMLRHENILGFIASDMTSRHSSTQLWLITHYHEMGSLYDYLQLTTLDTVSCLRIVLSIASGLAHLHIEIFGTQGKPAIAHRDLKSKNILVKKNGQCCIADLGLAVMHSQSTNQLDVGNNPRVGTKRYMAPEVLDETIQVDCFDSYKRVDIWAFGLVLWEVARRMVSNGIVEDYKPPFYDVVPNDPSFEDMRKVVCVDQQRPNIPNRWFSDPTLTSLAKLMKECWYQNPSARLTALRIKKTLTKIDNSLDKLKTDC
Experimental: Biochemical assays to measure the inhibitory effects of the compounds were performed by ThermoFisher Scientific (Life Technologies). ALK2 inhibition was tested using LanthaScreen™ Eu Kinase Binding Assay screening protocol.
`OC[C@@H]1CCCN1c1nc(Nc2cc(-c3ccccc3)[nH]n2)nc2ccoc12` [Compound 354b, (S)-(1-(2-((5-phenyl-1H-pyrazol-3-yl)amino)furo[3,2-d]pyrimidin-4-yl)pyrrolidin-2-yl)methanol] was tested, and the IC50 was > 1000 nM.
With `COC(=O)c1cc(-n2cnc(Nc3nc(N4CCC[C@H]4CO)c4cccn4n3)c2)cc(OC)c1OC` [Compound 355a, (S)-methyl 5-(4-((4-(2-(hydroxymethyl)pyrrolidin-1-yl)pyrrolo[2,1-f][1,2,4]triazin-2-yl)amino)-1H-imidazol-1-yl)-2,3-dimethoxybenzoate] the IC50 was < 100 nM.
With `COc1cc(-n2cnc(Nc3nc(N4CCC[C@H]4CO)c4ccc(C#N)cc4n3)c2)cc(OC)c1OC` [Compound 356b, (S)-4-(2-(hydroxymethyl)pyrrolidin-1-yl)-2-((1-(3,4,5-trimethoxyphenyl)-1H-imidazol-4-yl)amino)quinazoline-7-carbonitrile] the IC50 was < 100 nM.
In the case of `COc1cc(-c2ccc(Nc3nc(N4CCC[C@H]4CO)c4ccccc4n3)nc2)cc(OC)c1OC` [Compound 357d, (S)-(1-(2-((5-(3,4,5-trimethoxyphenyl)pyridin-2-yl)amino)quinazolin-4-yl)pyrrolidin-2-yl)methanol], the IC50 is reported as > 1000 nM.
For `COc1cc(-n2cnc(Nc3nc(N4CCC[C@H]4CO)nc4cc(N5CCCCC5)ccc34)c2)cc(OC)c1OC` [Compound 358a, (S)-(1-(7-(piperidin-1-yl)-4-((1-(3,4,5-trimethoxyphenyl)-1H-imidazol-4-yl)amino)quinazolin-2-yl)pyrrolidin-2-yl)methanol], the IC50 was < 100 nM.
In the case of `COc1cc(-n2cnc(Nc3nc4c(c(N5CCC[C@H]5CO)n3)CN(C(=O)OC(C)(C)C)C4)c2)cc(OC)c1OC` [Compound 359c, (S)-tert-butyl 4-(2-(hydroxymethyl)pyrrolidin-1-yl)-2-(1-(3,4,5-trimethoxyphenyl)-1H-imidazol-4-ylamino)-5H-pyrrolo[3,4-d]pyrimidine-6(7H)-carboxylate], the IC50 is reported as < 100 nM.
In the case of `COc1cc(-n2cnc(Nc3nc4c(c(N5CCC[C@H]5CO)n3)CNC4)c2)cc(OC)c1OC` [Compound 359d, (S)-(1-(2-(1-(3,4,5-trimethoxyphenyl)-1H-imidazol-4-ylamino)-6,7-dihydro-5H-pyrrolo[3,4-d]pyrimidin-4-yl)pyrrolidin-2-yl)methanol], the IC50 is reported as < 100 nM.
With `COc1cc(-n2cnc(Nc3nc(N4CCC[C@H]4C(N)=O)nc4c3CNC4)c2)cc(OC)c1OC` [Compound 360c, (S)-1-(4-(1-(3,4,5-trimethoxyphenyl)-1H-imidazol-4-ylamino)-6,7-dihydro-5H-pyrrolo[3,4-d]pyrimidin-2-yl)pyrrolidine-2-carboxamide] the IC50 was < 100 nM.
With `COc1cc(-n2cnc(Nc3nc(N4CCC[C@H]4CO)c4ccc(-c5cccc(N)c5)cc4n3)c2)cc(OC)c1OC` [Compound 361c, (S)-(1-(7-(3-aminophenyl)-2-((1-(3,4,5-trimethoxyphenyl)-1H-imidazol-4-yl)amino)quinazolin-4-yl)pyrrolidin-2-yl)methanol] the IC50 was < 100 nM.
In the case of `COc1cc(-n2cnc(Nc3nc(N4CCC[C@H]4CO)c4ccc(-c5cccc(F)c5)cc4n3)c2)cc(OC)c1OC` [Compound 362b, (S)-(1-(7-(3-fluorophenyl)-2-((1-(3,4,5-trimethoxyphenyl)-1H-imidazol-4-yl)amino)quinazolin-4-yl)pyrrolidin-2-yl)methanol], the IC50 is reported as < 100 nM.
`COc1cc(-n2cnc(Nc3nc(N4CCC[C@H]4CO)c4ccc(-c5cccc(NS(C)(=O)=O)c5)cc4n3)c2)cc(OC)c1OC` [Compound 363b, (S)—N-(3-(4-(2-(hydroxymethyl)pyrrolidin-1-yl)-2-((1-(3,4,5-trimethoxyphenyl)-1H-imidazol-4-yl)amino)quinazolin-7-yl)phenyl)methanesulfonamide] was tested, and the IC50 was < 100 nM.
`COc1cc(-n2cnc(Nc3nc(N4CCC[C@H]4CO)c4ccc(-c5cccc(NC(C)=O)c5)cc4n3)c2)cc(OC)c1OC` [Compound 364b, (S)—N-(3-(4-(2-(hydroxymethyl)pyrrolidin-1-yl)-2-((1-(3,4,5-trimethoxyphenyl)-1H-imidazol-4-yl)amino)quinazolin-7-yl)phenyl)acetamide] was tested, and the IC50 was < 100 nM.
`COc1cc(-n2cnc(Nc3nc(N4CCC[C@H]4CO)nc4c3CN(C(=O)OC(C)(C)C)C4)c2)cc(OC)c1OC` [Compound 365a, (S)-tert-butyl 2-(2-(hydroxymethyl)pyrrolidin-1-yl)-4-(1-(3,4,5-trimethoxyphenyl)-1H-imidazol-4-ylamino)-5H-pyrrolo[3,4-d]pyrimidine-6(7H)-carboxylate] was tested, and the IC50 was < 100 nM.
`COc1cc(-n2cnc(Nc3nc(N4CCC[C@H]4CO)nc4c3CNC4)c2)cc(OC)c1OC` [Compound 365b, (S)-(1-(4-(1-(3,4,5-trimethoxyphenyl)-1H-imidazol-4-ylamino)-6,7-dihydro-5H-pyrrolo[3,4-d]pyrimidin-2-yl)pyrrolidin-2-yl)methanol] was tested, and the IC50 was < 100 nM.
`COc1cc(-n2cnc(Nc3nc4c(c(N5CCC[C@@H]5CO)n3)CN(C(=O)OC(C)(C)C)C4)c2)cc(OC)c1OC` [Compound 366b, (R)-tert-butyl 4-(2-(hydroxymethyl)pyrrolidin-1-yl)-2-(1-(3,4,5-trimethoxyphenyl)-1H-imidazol-4-ylamino)-5H-pyrrolo[3,4-d]pyrimidine-6(7H)-carboxylate] was tested, and the IC50 was < 100 nM.
With `COc1cc(-n2cnc(Nc3nc4c(c(N5CCC[C@@H]5CO)n3)CNC4)c2)cc(OC)c1OC` [Compound 366c, (R)-(1-(2-(1-(3,4,5-trimethoxyphenyl)-1H-imidazol-4-ylamino)-6,7-dihydro-5H-pyrrolo[3,4-d]pyrimidin-4-yl)pyrrolidin-2-yl)methanol] the IC50 was < 100 nM.
`OC[C@@H]1CCCN1c1cc(Cl)c2ccccc2n1` [Compound 367b, (S)-(1-(4-chloroquinolin-2-yl)pyrrolidin-2-yl)methanol] was tested, and the IC50 was > 1000 nM.
In the case of `COc1cc(-n2cnc(Nc3cc(N4CCC[C@H]4CO)c4ccccc4n3)c2)cc(OC)c1OC` [Compound 368a, (S)-(1-(2-(1-(3,4,5-trimethoxyphenyl)-1H-imidazol-4-ylamino)quinolin-4-yl)pyrrolidin-2-yl)methanol], the IC50 is reported as 100 to 1000 nM.
`COc1cc(-n2cnc(Nc3cc4ccccc4c(N4CCC[C@@H]4CO)n3)c2)cc(OC)c1OC` [Compound 369b, (R)-(1-(3-(1-(3,4,5-trimethoxyphenyl)-1H-imidazol-4-ylamino)isoquinolin-1-yl)pyrrolidin-2-yl)methanol] gave an IC50 of 100 to 1000 nM.
In the case of `COc1cc(-c2ccc(Nc3nc(N4CCC[C@H]4CO)nc4ccccc34)nc2)cc(OC)c1OC` [Compound 370b, (S)-(1-(4-((5-(3,4,5-trimethoxyphenyl)pyridin-2-yl)amino)quinazolin-2-yl)pyrrolidin-2-yl)methanol], the IC50 is reported as > 1000 nM.
In the case of `COc1cc(-c2ccc(Nc3nc(N4CCC[C@H]4C(N)=O)nc4ccccc34)nc2)cc(OC)c1OC` [Compound 371a, (S)-1-(4-((5-(3,4,5-trimethoxyphenyl)pyridin-2-yl)amino)quinazolin-2-yl)pyrrolidine-2-carboxamide], the IC50 is reported as > 1000 nM.
With `COc1cc(-n2cnc(Nc3nc(N4CCC[C@@H]4CO)nc4cc(C#N)ccc34)c2)cc(OC)c1OC` [Compound 372a, (R)-2-(2-(hydroxymethyl)pyrrolidin-1-yl)-4-((1-(3,4,5-trimethoxyphenyl)-1H-imidazol-4-yl)amino)quinazoline-7-carbonitrile] the IC50 was < 100 nM.

Source: patent US11661426B2, “Imidazole-containing inhibitors of ALK2 kinase” (BioCryst Pharmaceuticals, Inc., priority 2017, dated 2023)
